# Test results reported in patent US20120029187A1, “HALOALKYLSULFONANILIDE DERIVATIVE” (Nissan Chemical Industries, Ltd., priority 2009, published 2012).
# Assays:
# Format in all cases: in vivo
# [1] = tested on: transplanted rice; experiment: Test Example 1: preemergence treatment under submerged conditions, effect on crop; conditions: dose 2.52 g/a
# How it was run: (§1)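 Submerged conditions, 4 cm water over alluvial soil. Weeds sown and 2.5-leaf rice transplanted; compound applied preemergence to water surface, doses in g per are. Greenhouse, 25 to 30° C., three weeks, then 0–5 mortality rating.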
# [2] = tested on: ducksalad; experiment: Test Example 1: herbicidal effects in preemergence treatment under submerged conditions; conditions: dose 2.52 g/a
# How it was run: as §1
# [3] = tested on: barnyardgrass; experiment: as above; conditions: dose 2.52 g/a
# How it was run: as §1
# [4] = tested on: bulrush; experiment: as above; conditions: dose 2.52 g/a
# How it was run: as §1
# [5] = tested on: ducksalad; experiment: Test Example 2: herbicidal effects during the vegetation period under submerged conditions; conditions: treatment during the vegetation period under submerged conditions; dose 2.52 g/a
# How it was run: (§2)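 Barnyardgrass, bulrush and ducksalad were co-sown in alluvial soil flooded to 4 cm and grown in a greenhouse at 25 to 30° C. At the 1- or 2-leaf stage, water-diluted emulsifiable concentrates went onto the water surface at set doses (g/a). Herbicidal effect was scored three weeks later on a graded scale.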
# [6] = tested on: barnyardgrass; experiment: as above; conditions: treatment during the vegetation period under submerged conditions; dose 2.52 g/a
# How it was run: as §2
# [7] = tested on: bulrush; experiment: as above; conditions: treatment during the vegetation period under submerged conditions; dose 2.52 g/a
# How it was run: as §2
# [8] = tested on: common chickweed; experiment: Test Example 4: herbicidal effect in foliage treatment; conditions: dose 3.2 g/a
# How it was run: (§3)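 14-day greenhouse-grown plants (25–30° C) sprayed on foliage with diluted EC; dose as g/a; effect graded after 3 weeks.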
# [9] = tested on: water foxtail; experiment: as above; conditions: dose 3.2 g/a
# How it was run: as §3
# [10] = tested on: common ragweed; experiment: as above; conditions: dose 3.2 g/a
# How it was run: as §3
# [11] = tested on: giant foxtail; experiment: as above; conditions: dose 3.2 g/a
# How it was run: as §3
# [12] = tested on: redroot pigweed; experiment: as above; conditions: dose 3.2 g/a
# How it was run: as §3
# [13] = tested on: common lambsquater; experiment: as above; conditions: dose 3.2 g/a
# How it was run: as §3
# [14] = tested on: barnyardgrass; experiment: as above; conditions: dose 3.2 g/a
# How it was run: as §3
# [15] = tested on: wild oat; experiment: as above; conditions: dose 3.2 g/a
# How it was run: as §3
# [16] = tested on: velvetleaf; experiment: as above; conditions: dose 3.2 g/a
# How it was run: as §3
# [17] = tested on: Italian ryegrass; experiment: as above; conditions: dose 3.2 g/a
# How it was run: as §3
# [18] = tested on: beadstraw; experiment: as above; conditions: dose 3.2 g/a
# How it was run: as §3
# [19] = tested on: large crabgrass; experiment: as above; conditions: dose 3.2 g/a
# How it was run: as §3
# [20] = tested on: posumbu knotweed; experiment: as above; conditions: dose 3.2 g/a
# How it was run: as §3
# [21] = tested on: common chickweed; experiment: Test Example 3: herbicidal effects in soil treatment; conditions: dose 3.2 g/a
# How it was run: (§4)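 Seeds were sown in sterilized diluvial soil and covered with about 1.5 cm of soil. Compounds, formulated as emulsifiable concentrates and diluted with water, were sprayed evenly over the soil surface at set doses in g/a. Herbicidal effect was scored on a rating scale three weeks later.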
# [22] = tested on: water foxtail; experiment: as above; conditions: dose 3.2 g/a
# How it was run: as §4
# [23] = tested on: common ragweed; experiment: as above; conditions: dose 3.2 g/a
# How it was run: as §4
# [24] = tested on: giant foxtail; experiment: as above; conditions: dose 3.2 g/a
# How it was run: as §4
# [25] = tested on: redroot pigweed; experiment: as above; conditions: dose 3.2 g/a
# How it was run: as §4
# [26] = tested on: common lambsquater; experiment: as above; conditions: dose 3.2 g/a
# How it was run: as §4
# [27] = tested on: barnyardgrass; experiment: as above; conditions: dose 3.2 g/a
# How it was run: as §4
# [28] = tested on: Italian ryegrass; experiment: as above; conditions: dose 3.2 g/a
# How it was run: as §4
# [29] = tested on: large crabgrass; experiment: as above; conditions: dose 3.2 g/a
# How it was run: as §4
# [30] = tested on: posumbu knotweed; experiment: as above; conditions: dose 3.2 g/a
# How it was run: as §4
# [31] = three weeks after the application
smiles,measurement,setting,value
CCOC(=O)N(c1ccccc1CN1COC(c2ccccc2)CC1=O)S(=O)(=O)C(F)(F)F (centres unmarked) [II-10],"a: transplanted rice, effect on crop (evaluation scale 0-5)",[1],0 (mortality of less than 5% (almost ineffective))
same,"C: ducksalad, herbicidal effect (evaluation scale 0-5)",[2],5 (mortality of 90% or above (nearly complete death))
same,"A: barnyardgrass, herbicidal effect (evaluation scale 0-5)",[3],5 (mortality of 90% or above (nearly complete death))
same,"B: bulrush, herbicidal effect (evaluation scale 0-5)",[4],5 (mortality of 90% or above (nearly complete death))
same,"C: ducksalad, herbicidal effect (evaluation scale 0-5)",[5],5 (mortality of 90% or above (nearly complete death))
same,"A: barnyardgrass, herbicidal effect (evaluation scale 0-5)",[6],4 (mortality of at least 70% and less than 90%)
same,"B: bulrush, herbicidal effect (evaluation scale 0-5)",[7],5 (mortality of 90% or above (nearly complete death))
same,"N: common chickweed, herbicidal effect",[8]; three weeks after application,4 (mortality of at least 70% and less than 90%)
same,"G: water foxtail, herbicidal effect",[9]; three weeks after application,4 (mortality of at least 70% and less than 90%)
same,"J: common ragweed, herbicidal effect",[10]; three weeks after application,3 (mortality of at least 40% and less than 70%)
same,"E: giant foxtail, herbicidal effect",[11]; three weeks after application,3 (mortality of at least 40% and less than 70%)
same,"K: redroot pigweed, herbicidal effect",[12]; three weeks after application,0 (mortality of less than 5% (almost ineffective))
same,"L: common lambsquater, herbicidal effect",[13]; three weeks after application,3 (mortality of at least 40% and less than 70%)
same,"A: barnyardgrass, herbicidal effect",[14]; three weeks after application,4 (mortality of at least 70% and less than 90%)
same,"F: wild oat, herbicidal effect",[15]; three weeks after application,0 (mortality of less than 5% (almost ineffective))
same,"I: velvetleaf, herbicidal effect",[16]; three weeks after application,4 (mortality of at least 70% and less than 90%)
same,"H: Italian ryegrass, herbicidal effect",[17]; three weeks after application,1 (mortality of at least 5% and less than 20%)
same,"O: beadstraw, herbicidal effect",[18]; three weeks after application,3 (mortality of at least 40% and less than 70%)
same,"D: large crabgrass, herbicidal effect",[19]; three weeks after application,0 (mortality of less than 5% (almost ineffective))
same,"M: posumbu knotweed, herbicidal effect",[20]; three weeks after application,4 (mortality of at least 70% and less than 90%)
same,"N: common chickweed, herbicidal effect (evaluation scale 0-5)",[21],5 (mortality of 90% or above (nearly complete death))
same,"G: water foxtail, herbicidal effect (evaluation scale 0-5)",[22],5 (mortality of 90% or above (nearly complete death))
same,"J: common ragweed, herbicidal effect (evaluation scale 0-5)",[23],0 (mortality of less than 5% (almost ineffective))
same,"E: giant foxtail, herbicidal effect (evaluation scale 0-5)",[24],4 (mortality of at least 70% and less than 90%)
same,"K: redroot pigweed, herbicidal effect (evaluation scale 0-5)",[25],0 (mortality of less than 5% (almost ineffective))
same,"L: common lambsquater, herbicidal effect (evaluation scale 0-5)",[26],3 (mortality of at least 40% and less than 70%)
same,"A: barnyardgrass, herbicidal effect (evaluation scale 0-5)",[27],4 (mortality of at least 70% and less than 90%)
same,"H: Italian ryegrass, herbicidal effect (evaluation scale 0-5)",[28],2 (mortality of at least 20% and less than 40%)
same,"D: large crabgrass, herbicidal effect (evaluation scale 0-5)",[29],4 (mortality of at least 70% and less than 90%)
same,"M: posumbu knotweed, herbicidal effect (evaluation scale 0-5)",[30],0 (mortality of less than 5% (almost ineffective))
CCOC(=O)N(c1ccccc1CN1COC(C)(C(F)(F)F)C(Br)C1=O)S(=O)(=O)C(F)(F)F (centres unmarked) [II-75],"a: transplanted rice, effect on crop (evaluation scale 0-5)",[1],0 (mortality of less than 5% (almost ineffective))
same,"C: ducksalad, herbicidal effect (evaluation scale 0-5)",[2],5 (mortality of 90% or above (nearly complete death))
same,"A: barnyardgrass, herbicidal effect (evaluation scale 0-5)",[3],5 (mortality of 90% or above (nearly complete death))
same,"B: bulrush, herbicidal effect (evaluation scale 0-5)",[4],5 (mortality of 90% or above (nearly complete death))
same,"C: ducksalad, herbicidal effect (evaluation scale 0-5)",[5],5 (mortality of 90% or above (nearly complete death))
same,"A: barnyardgrass, herbicidal effect (evaluation scale 0-5)",[6],5 (mortality of 90% or above (nearly complete death))
same,"B: bulrush, herbicidal effect (evaluation scale 0-5)",[7],5 (mortality of 90% or above (nearly complete death))
same,"N: common chickweed, herbicidal effect",[8]; [31],3 (mortality of at least 40% and less than 70%)
same,"G: water foxtail, herbicidal effect",[9]; [31],2 (mortality of at least 20% and less than 40%)
same,"J: common ragweed, herbicidal effect",[10]; [31],0 (mortality of less than 5% (almost ineffective))
same,"E: giant foxtail, herbicidal effect",[11]; [31],1 (mortality of at least 5% and less than 20%)
same,"K: redroot pigweed, herbicidal effect",[12]; [31],3 (mortality of at least 40% and less than 70%)
same,"L: common lambsquater, herbicidal effect",[13]; [31],4 (mortality of at least 70% and less than 90%)
same,"A: barnyardgrass, herbicidal effect",[14]; [31],4 (mortality of at least 70% and less than 90%)
same,"F: wild oat, herbicidal effect",[15]; [31],0 (mortality of less than 5% (almost ineffective))
same,"I: velvetleaf, herbicidal effect",[16]; [31],3 (mortality of at least 40% and less than 70%)
same,"H: Italian ryegrass, herbicidal effect",[17]; [31],3 (mortality of at least 40% and less than 70%)
same,"O: beadstraw, herbicidal effect",[18]; [31],5 (mortality of 90% or above (nearly complete death))
same,"D: large crabgrass, herbicidal effect",[19]; [31],1 (mortality of at least 5% and less than 20%)
same,"M: posumbu knotweed, herbicidal effect",[20]; [31],1 (mortality of at least 5% and less than 20%)
